According to US20220202964A1, “HEPARANASE COMPOUNDS AND METHODS OF USE” (University of Florida Research Foundation, Incorporated, priority 2019, published 2022):

Tests used:
[1] = pH profile of fluorescence / pKa; format: physicochemical; conditions: pH range from 1 to 13
Description: So, pH profiles of the fluorophore DiFMU and Compound 1 (HADP) were evaluated. […] In contrast, the pKa of 4-methylumbelliferone is ca. 7.8. […] Moreover, the introduction of the fluorine substituents increased the quantum yield and improved the photostability, enabling highly sensitive detection for heparanase.

heparanase [2] = target: T1, heparanase (Homo sapiens, UniProt Q9Y251); assay: Activation of compounds by recombinant heparanase (fluorescence response); format: biochemical
T1 sequence (Q9Y251 36-543): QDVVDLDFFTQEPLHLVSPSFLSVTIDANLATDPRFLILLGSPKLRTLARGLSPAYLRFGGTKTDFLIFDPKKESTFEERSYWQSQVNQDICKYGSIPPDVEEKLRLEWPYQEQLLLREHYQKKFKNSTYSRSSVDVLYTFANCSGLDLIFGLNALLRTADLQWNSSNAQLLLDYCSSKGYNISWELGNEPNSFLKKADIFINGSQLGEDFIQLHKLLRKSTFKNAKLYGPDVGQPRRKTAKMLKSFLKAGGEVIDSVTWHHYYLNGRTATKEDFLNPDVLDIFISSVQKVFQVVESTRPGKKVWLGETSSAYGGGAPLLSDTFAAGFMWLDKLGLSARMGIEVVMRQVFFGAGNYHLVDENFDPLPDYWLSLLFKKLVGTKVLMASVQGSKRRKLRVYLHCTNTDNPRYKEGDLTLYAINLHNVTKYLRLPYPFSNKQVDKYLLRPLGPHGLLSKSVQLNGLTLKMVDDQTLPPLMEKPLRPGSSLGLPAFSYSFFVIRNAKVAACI
Description: To a solution of 20 μL, of 50 μM compound 1 (HADP) and 160 μL 40 mM NaOAc (pH=5.0) was added 20 μL, 0.1 μg/μL heparanase to obtain 5 μM 1 (HADP) with 2 μg heparanase solution. After incubation at 37° C. for 2 h, the reaction solution was transferred to quartz cuvettes to measure absorbance or fluorescence. Absorbance spectrum scan range from 250 nm to 500 nm (1 nm increment). fluorescence spectrum setting: λex=365 nm, Slit Width 2.5 nm. Emission was record from 400 nm to 600 nm, Slit Width 5 nm. Absorption spectra were recorded on Shimadzu UV-2700 UV-VIS Spectrophotometer. Fluorescence spectra were recorded on Fluorolog TAU-3 Spectrofluorometer with a xenon lamp (Jobin Yvon-Spex, Instruments S. A., Inc.)
Fluorescence micro cells was charged with 20 μL, of 50 μM compound 1 (HADP) and 160 μL 40 mM NaOAc (pH=5.0). Then 20 μL, 0.05 μg/μL heparanase was added to the above solution. Fluorescence spectra were recorded from 0 min to 3 h. fluorescence spectrum setting: λex=365 nm, Slit Width 2.5 nm. Emission was record from 400 nm to 600 nm, Slit Width 5 nm.
To a solution of 20 μL, of 50 μM each compound and 160 μL, 40 mM NaOAc (pH=5.0) was added 20 μL, 0.05 μg/μL heparanase to obtain 5 μM each compound with 1 μg heparanase solution in 96-well microplate. Each compound was performed in triplicate. Then the microplate was sealed with sealing film and incubated at 37° C. Fluorescence intensity was recorded on Spectramax M5 Multimode plate reader (Molecular Devices, USA) at each timepoint. λex/em=365 nm/455 nm.
(§1) 5 μM compound 1 (HADP) was incubated with various biological species at the indicated amount/concentration in 96-well microplate. Cysteine (5 mM), Glutathione (5 mM), H2O2 (100 μM), Esterase, Chondroitinase ABC, Hyaluronidase, Lysozyme, β-Glucuronidase, β-Glucosidase (5 μg each) and heparanase (2 μg). For Chondroitinase ABC and Hyaluronidase, 50 μg was also tested. Each sample was performed in triplicates. Then the microplate was sealed with sealing film and incubated at 37° C. for 4 hours. Fluorescence intensity was recorded on Spectramax M5 Multimode plate reader (Molecular Devices, USA). λex/em=365 nm/455 nm.

[3] = Selectivity toward heparanase against interfering biological molecules and enzymes; format: biochemical
Description: as §1

Hyaluronidase = assay: Fluorescence response to biological species: hyaluronidase; format: biochemical; conditions: 5 μM; hyaluronidase 5 μg (50 μg also tested); 4 h, 37° C.
Description: as §1

heparanase [4] = target: T1, heparanase; assay: HPLC analysis of compounds 1-4 with heparanase; format: biochemical; conditions: 5 μM, heparanase 1 μg, 4 hours, 37° C., NaOAc pH 5.0
Description: Heparanase (1 μg, 20 μL) was added to the compounds 1-4 solution (180 μL, 5 μM) in 40 mM NaOAc buffer (pH 5.0) and the mixture was incubated for 4 hours at 37° C. The resulting mixtures were injected into HPLC for analysis. HPLC analysis was performed under the following conditions—mobile phase A: water with 0.1% TFA; B: acetonitrile with 0.1% TFA; 0-20 min: gradient elution, 25-95% B. The trace was monitored by DAD detector at 315 nm.

[5] = Fluorescence response to biological oxidizing and reducing species; conditions: 5 μM; 100 μM H2O2, 5 mM GSH and Cys; 4 h, 37° C.
Description: as §1

Structure (SMILES): Cc1cc(=O)oc2c(F)c(O[C@@H]3O[C@H](C(=O)O)[C@@H](O[C@H]4O[C@H](CO)[C@@H](O)[C@H](O)[C@H]4NS(=O)(=O)O)[C@H](O)[C@H]3O)c(F)cc12 [Compound 1]
- fluorescence change at 455 nm over pH [1]: no remarkable fluorescence change
- fluorescence response towards heparanase (heparanase [2]; 5 μM compound, 1 μg heparanase, 40 mM NaOAc buffer (pH 5.0), 37° C., λex/em=365 nm/455 nm): significant fluorescence enhancement
- fluorescence enhancement turn-on ratio at 450 nm (heparanase [2]; 5 μM, heparanase 2 μg (0.01 μgμl-1), after 2 hours, NaOAc pH 5.0): up to 756 fold
- fluorescence off-on response to heparanase in selectivity panel (heparanase [2]; 5 μM, heparanase 2 μg, 4 h, 37° C.): largest “off-on” response
- time at which fluorescence reached a plateau (heparanase [2]; HADP 5 μM, heparanase 1 μg): 2.5 h
- time at which the enzymatic reaction was completed after addition of heparanase (heparanase [2]; heparanase 2 μg, 5 μM probe): 40 min
- selectivity for heparanase over other competitive analytes [3]: excellent selectivity
- fluorescence increase upon addition of other molecules and enzymes ([3]; 5 μM, superphysiological levels, 4 h, 37° C.): no fluorescence increase
- fluorescence change (Hyaluronidase): did not afford obvious fluorescence change
- cleavage by heparanase (HPLC trace) (heparanase [4]): clean conversion
- fluorescence change [5]: No fluorescence change
